This passage reports Ki results from patent US12552804B2, “Tricyclic heterocycles as FGFR inhibitors” (Incyte Corporation, priority 2019, dated 2026).

The target of this assay is wild-type un-phosphorylated FGFR3 protein (Homo sapiens, UniProt P22607). Kind of assay: FGFR Enzymatic Assay (FRET detection of peptide phosphorylation). It counts as biochemical. The note with it: pre-incubated for 4 hours, read-out: FGFR3_Ki. On the procedure: The inhibitor potency of the exemplified compounds was determined in an enzyme discontinuous assay that measures peptide phosphorylation using FRET measurements to detect product formation. Inhibitors were serially diluted in DMSO and a volume of 0.2 μL was transferred to the wells of a 384-well plate. A 5 μL/well volume of enzyme isoforms of FGFR (−1, −2, −3 wild-type and mutant isoforms, −4) including phosphorylated and un-phosphorylated proteins diluted in assay buffer (50 mM HEPES, 10 mM MgCl2, 1 mM EGTA, 0.01% Tween-20, 5 mM DTT, pH 7.5) was added to the plate and pre-incubated with inhibitor for 5 to 15 minutes at ambient temperature. Appropriate controls (enzyme blank and enzyme with no inhibitor) were included on the plate. […] The ATP Km values were pre-determined in a separate series of experiments. The reaction plate was incubated at 25° C. for 1 hr and the reactions were ended with the addition of 5 μL/well of quench solution (50 mM Tris, 150 mM NaCl, 0.5 mg/mL BSA, pH 7.8; 45 mM EDTA, 600 nM staurosporin, with Perkin Elmer Lance Reagents at 3.75 nM Eu-antibody PY20 and 180 nM APC-Streptavidin). The plate was allowed to equilibrate for ˜10 minutes at ambient temperature before scanning on a PheraStar plate reader (BMG Labtech) instrument.
Either GraphPad prism or XLfit was used to analyze the data. The IC50 values were derived by fitting the data to a four parameter logistic equation producing a sigmoidal dose-response curve with a variable Hill coefficient. Prism equation: Y=Bottom+(Top−Bottom)/(1+10^((LogIC50−X)*Hill slope)); XLfit equation: Y=(A+((B−A)/(1+((X/C)^D)))) where X is the logarithm of inhibitor concentration and Y is the response.
The data in Table 1 was measured in wild-type un-phosphorylated FGFR3 protein.

Some results are limits rather than exact numbers.

Sequence of wild-type un-phosphorylated FGFR3 protein (P22607 23-806): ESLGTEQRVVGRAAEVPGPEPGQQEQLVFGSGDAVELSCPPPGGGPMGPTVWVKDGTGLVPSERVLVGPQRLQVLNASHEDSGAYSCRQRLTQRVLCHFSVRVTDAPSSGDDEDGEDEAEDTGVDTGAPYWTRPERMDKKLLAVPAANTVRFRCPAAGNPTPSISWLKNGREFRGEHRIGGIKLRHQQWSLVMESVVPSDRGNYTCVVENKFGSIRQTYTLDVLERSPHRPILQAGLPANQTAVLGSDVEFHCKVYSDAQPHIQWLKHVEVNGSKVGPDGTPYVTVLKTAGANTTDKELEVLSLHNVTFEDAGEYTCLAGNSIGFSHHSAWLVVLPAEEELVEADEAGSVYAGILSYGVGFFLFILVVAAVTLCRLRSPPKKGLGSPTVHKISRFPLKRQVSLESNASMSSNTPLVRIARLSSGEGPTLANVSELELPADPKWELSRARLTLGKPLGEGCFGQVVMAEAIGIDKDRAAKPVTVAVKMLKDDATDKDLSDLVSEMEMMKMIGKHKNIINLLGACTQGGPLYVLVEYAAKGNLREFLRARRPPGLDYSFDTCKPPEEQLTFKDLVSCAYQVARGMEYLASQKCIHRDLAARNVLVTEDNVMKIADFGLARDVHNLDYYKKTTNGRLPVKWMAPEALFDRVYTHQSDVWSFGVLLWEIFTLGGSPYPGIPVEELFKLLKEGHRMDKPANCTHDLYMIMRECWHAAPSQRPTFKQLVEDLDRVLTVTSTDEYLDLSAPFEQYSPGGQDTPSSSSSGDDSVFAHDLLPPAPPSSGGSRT

For `Cc1c(-c2ccccc2Cl)nc2c3cc(-c4cnn(C)c4)cnc3ccn12` [Example 1, 2-(2-Chlorophenyl)-3-methyl-9-(1-methyl-1H-pyrazol-4-yl)imidazo[2,1-f][1,6]naphthyridine], the Ki lay within 10 to 100 nM.
Consider `Cn1cc(-c2cnc3ccn4c(C5=CCCC5)c(-c5ccccc5Cl)nc4c3c2)cn1` [Example 2, 2-(2-Chlorophenyl)-3-(cyclopent-1-en-1-yl)-9-(1-methyl-1H-pyrazol-4-yl)imidazo[2,1-f][1,6]naphthyridine], for which the Ki is 100 to 400 nM.
For `C/C=C/c1c(-c2ccccc2Cl)nc2c3cc(-c4cnn(C)c4)cnc3ccn12` [Example 3, (E)-2-(2-Chlorophenyl)-9-(1-methyl-1H-pyrazol-4-yl)-3-(prop-1-en-1-yl)imidazo[2,1-f][1,6]naphthyridine] the value was 10 to 100 nM; for `COc1cc(OC)cc(-c2c(-c3ccccc3Cl)nc3c4cc(-c5cnn(C)c5)cnc4ccn23)c1` [Example 4, 2-(2-Chlorophenyl)-3-(3,5-dimethoxyphenyl)-9-(1-methyl-1H-pyrazol-4-yl)imidazo[2,1-f][1,6]naphthyridine], less than 10 nM.
As for `Cn1cc(-c2cnc3ccn4c(-c5cnn(C)c5)c(-c5ccccc5Cl)nc4c3c2)cn1` [Example 5, 2-(2-Chlorophenyl)-3,9-bis(1-methyl-1H-pyrazol-4-yl)imidazo[2,1-f][1,6]naphthyridine], the Ki is 100 to 400 nM.
For `Cn1cc(-c2cnc3ccn4c(-c5ccco5)c(-c5ccccc5Cl)nc4c3c2)cn1` [Example 6, 2-(2-Chlorophenyl)-3-(furan-2-yl)-9-(1-methyl-1H-pyrazol-4-yl)imidazo[2,1-f][1,6]naphthyridine] the value was 10 to 100 nM.
The value for `Cn1cc(-c2cnc3ccn4c(C#N)c(-c5ccccc5Cl)nc4c3c2)cn1` [Example 7, 2-(2-Chlorophenyl)-9-(1-methyl-1H-pyrazol-4-yl)imidazo[2,1-f][1,6]naphthyridine-3-carbonitrile] was 100 to 400 nM; that for `Cn1cc(-c2cnc3ccn4c(C5CC5)c(-c5ccccc5Cl)nc4c3c2)cn1` [Example 8, 2-(2-Chlorophenyl)-3-cyclopropyl-9-(1-methyl-1H-pyrazol-4-yl)imidazo[2,1-f][1,6]naphthyridine] was less than 10 nM.
The value for `CCc1c(-c2ccccc2Cl)nc2c3cc(-c4cnn(C)c4)cnc3ccn12` [Example 9, 2-(2-Chlorophenyl)-3-ethyl-9-(1-methyl-1H-pyrazol-4-yl)imidazo[2,1-f][1,6]naphthyridine] was 10 to 100 nM; that for `Cn1cc(-c2cnc3ccn4c(Cl)c(-c5ccccc5Cl)nc4c3c2)cn1` [Example 10, 3-Chloro-2-(2-chlorophenyl)-9-(1-methyl-1H-pyrazol-4-yl)imidazo[2,1-f][1,6]naphthyridine] was 10 to 100 nM; that for `Cn1cc(-c2cnc3ccn4cc(-c5c(F)cccc5F)nc4c3c2)cn1` [Example 11, 2-(2,6-Difluorophenyl)-9-(1-methyl-1H-pyrazol-4-yl)imidazo[2,1-f][1,6]naphthyridine] was 10 to 100 nM.
Regarding `Cc1nn(C)cc1-c1cnc2ccn3cc(-c4c(F)cccc4Cl)nc3c2c1` [Example 12, 2-(2-Chloro-6-fluorophenyl)-9-(1,3-dimethyl-1H-pyrazol-4-yl)imidazo[2,1-f][1,6]naphthyridine], the Ki was in the range of 10 to 100 nM.
For `Cn1cc(-c2cnc3ccn4c(C5CC5)c(-c5ccccc5Cl)nc4c3n2)cn1` [Example 13, 9-(2-Chlorophenyl)-8-cyclopropyl-2-(1-methyl-1H-pyrazol-4-yl)imidazo[1′,2′:1,2]pyrido[3,4-b]pyrazine] the value was less than 10 nM; for `Cn1cc(-c2cnc3ccn4cc(-c5c(F)cccc5Cl)nc4c3n2)cn1` [Example 14, 9-(2-Chloro-6-fluorophenyl)-2-(1-methyl-1H-pyrazol-4-yl)imidazo[1′,2′:1,2]pyrido[3,4-b]pyrazine], 10 to 100 nM; for `CC(=O)N1CCC(n2cc(-c3cnc4ccn5cc(-c6c(Cl)cccc6Cl)nc5c4c3)cn2)C1` (stereo not drawn) [Example 15, 1-(3-(4-(2-(2,6-Dichlorophenyl)imidazo[2,1-f][1,6]naphthyridin-9-yl)-1H-pyrazol-1-yl)pyrrolidin-1-yl)ethan-1-one], less than 10 nM.
The value for `O=C(O)[C@H]1CC[C@H](n2cc(-c3cnc4ccn5c(C6CC6)c(-c6ccccc6Cl)nc5c4c3)cn2)CC1` [Example 16, (1R,4R)-4-(4-(2-(2-Chlorophenyl)-3-cyclopropylimidazo[2,1-f][1,6]naphthyridin-9-yl)-1H-pyrazol-1-yl)cyclohexane-1-carboxylic acid] was less than 10 nM; that for `CC(=O)N[C@H]1CC[C@H](n2cc(-c3cnc4ccn5c(C6CC6)c(-c6ccccc6Cl)nc5c4c3)cn2)CC1` [Example 17, N-((1R,4R)-4-(4-(2-(2-Chlorophenyl)-3-cyclopropylimidazo[2,1-f][1,6]naphthyridin-9-yl)-1H-pyrazol-1-yl)cyclohexyl)acetamide] was less than 10 nM.
The value for `Cc1cccc(F)c1-c1nc2c3nc(-c4cnn(C)c4)cnc3ccc2n1C` [Example 18, 2-(2-Fluoro-6-methylphenyl)-3-methyl-8-(1-methyl-1H-pyrazol-4-yl)-3H-imidazo[4,5-f]quinoxaline] was 10 to 100 nM; that for `COc1ccc(-c2nc3c4nc(-c5cnn(C)c5)cnc4ccc3n2C)c(Cl)c1` [Example 19, 2-(2-Chloro-4-methoxyphenyl)-3-methyl-8-(1-methyl-1H-pyrazol-4-yl)-3H-imidazo[4,5-f]quinoxaline] was 100 to 400 nM.
With `Cc1ccoc1-c1nc2c3nc(-c4cnn(C)c4)cnc3ccc2n1C` [Example 20, 3-Methyl-8-(1-methyl-1H-pyrazol-4-yl)-2-(3-methylfuran-2-yl)-3H-imidazo[4,5-f]quinoxaline], the Ki lay in the range of 100 to 400 nM.
For `Cn1c(-c2c(F)cccc2Cl)nc2c3nc(-c4cnn(C5CC(O)C5)c4)cnc3ccc21` (stereo not drawn) [Example 21, 3-(4-(2-(2-Chloro-6-fluorophenyl)-3-methyl-3H-imidazo[4,5-f]quinoxalin-8-yl)-1H-pyrazol-1-yl)cyclobutan-1-ol] the value was less than 10 nM; for `CC(=O)N1CCN(c2ccc(-c3cnc4ccc5c(nc(-c6c(F)cccc6Cl)n5C)c4n3)cn2)CC1` [Example 22, 1-(4-(5-(2-(2-Chloro-6-fluorophenyl)-3-methyl-3H-imidazo[4,5-f]quinoxalin-8-yl)pyridin-2-yl)piperazin-1-yl)ethan-1-one], less than 10 nM; for `CN1CCC(c2nc3c4nc(-c5cnn(C)c5)cnc4ccc3n2C)CC1` [Example 23, 3-Methyl-8-(1-methyl-1H-pyrazol-4-yl)-2-(1-methylpiperidin-4-yl)-3H-imidazo[4,5-f]quinoxaline], no less than 400 nM.
For `Cn1cc(-c2cnc3ccc4c(nc(N5[C@@H]6CC[C@H]5C(=O)NC6)n4C)c3n2)cn1` [Example 24, (1S,5R)-8-(3-Methyl-8-(1-methyl-1H-pyrazol-4-yl)-3H-imidazo[4,5-f]quinoxalin-2-yl)-3,8-diazabicyclo[3.2.1]octan-2-one] the value was no less than 400 nM.
Consider `Cc1c(-c2c(Cl)cccc2C(F)(F)F)nc2c3cc(-c4cnn([C@H]5CCN(C(=O)CO)C5)c4)cnc3ccn12` [Example 25, (S)-1-(3-(4-(2-(2-Chloro-6-(trifluoromethyl)phenyl)-3-methylimidazo[2,1-f][1,6]naphthyridin-9-yl)-1H-pyrazol-1-yl)pyrrolidin-1-yl)-2-hydroxyethan-1-one], for which the Ki was less than 10 nM.
For `Cc1cccc(C)c1-c1nc2c3cc(-c4cnn([C@H]5CCN(C(=O)CO)C5)c4)cnc3ccn2c1C` [Example 26, (S)-1-(3-(4-(2-(2,6-Dimethylphenyl)-3-methylimidazo[2,1-f][1,6]naphthyridin-9-yl)-1H-pyrazol-1-yl)pyrrolidin-1-yl)-2-hydroxyethan-1-one] the value was less than 10 nM; for `Cc1c(-c2c(F)cccc2C#N)nc2c3cc(-c4cnn([C@H]5CCN(C(=O)CO)C5)c4)cnc3ccn12` [Example 27, (S)-3-Fluoro-2-(9-(1-(1-(2-hydroxyacetyl)pyrrolidin-3-yl)-1H-pyrazol-4-yl)-3-methylimidazo[2,1-f][1,6]naphthyridin-2-yl)benzonitrile], 10 to 100 nM.
The value for `COc1cccc(F)c1-c1nc2c3cc(-c4cnn([C@H]5CCN(C(=O)CO)C5)c4)cnc3ccn2c1C` [Example 28, (S)-1-(3-(4-(2-(2-Fluoro-6-methoxyphenyl)-3-methylimidazo[2,1-f][1,6]naphthyridin-9-yl)-1H-pyrazol-1-yl)pyrrolidin-1-yl)-2-hydroxyethan-1-one] was 10 to 100 nM; that for `Cc1cccc(-c2nc3c4cc(-c5cnn(C)c5)cnc4ccn3c2C)c1C` [Example 29, 2-(2,3-Dimethylphenyl)-3-methyl-9-(1-methyl-1H-pyrazol-4-yl)imidazo[2,1-f][1,6]naphthyridine] was 10 to 100 nM.
As for `Cc1cc(CO)ccc1-c1nc2c3cc(-c4cnn(C)c4)cnc3ccn2c1C` [Example 30, (3-Methyl-4-(3-methyl-9-(1-methyl-1H-pyrazol-4-yl)imidazo[2,1-f][1,6]naphthyridin-2-yl)phenyl)methanol], the Ki lay in the range of 10 to 100 nM.
